Data published in patent US20190216889A1, “METHODS AND COMPOSITIONS FOR TREATMENT OF FIBROSIS” (Children's Hospital Medical Center, priority 2018, published 2019).
“Also recorded” adds a separate entry of the source. Where no end group is shown, it is not given here.

Assays:
liver fibrosis = settings: localized pUR4 treatment; cited from earlier work
[1] = system: murine model of unilateral renal ischemia/reperfusion (UIR); experiment: Unilateral renal ischemia/reperfusion (UIR) with daily i.p. peptide from day 7, tissues collected day 14; type: in vivo, C57BL6/J mice
Experimental: Starting seven days after surgery, pUR4 (25 mg/kg/d), III-11C (control; 25 mg/kg/d) or PBS were administered daily by intraperitoneal injection. Mice were sacrificed and tissues collected 14 days after surgery.
All procedures were approved by and performed according to the Department of Laboratory Animal Medicine and the Institutional Animal Care and Use Committee at the Cincinnati Children's Hospital Medical Center. Wild type C57BL6/J 9-10-week-old male mice (Jackson Laboratories) were used for these experiments.
Mice were allowed 1-2 weeks of acclimation upon arrival to the animal facility, after which they underwent unilateral ischemia/reperfusion (UIR) according to Le Clef et al., 2016.17 Briefly, mice were anesthetized with 3% isoflurane for surgical prep (abdominal hair removal, animal identification, etc.), and maintained at 1.5% isoflurane on a 37° C. heating pad throughout the procedure. Following surgical exposure of the ventral abdomen, an atraumatic clamp was placed on the left renal artery and vein for 30 minutes; verification of color change following reperfusion was performed by the surgeon before mice were sutured and glued (outer suture reinforcement), given buprenorphine and subcutaneous saline and returned to their cages. For each animal, the contralateral (right) kidney and renal blood vessels were visualized, but remained untouched. Sham animals underwent an identical surgical procedure, except that the left and right renal arteries and veins were exposed, but were not clamped. Seven (7) days after surgery, mice were weighed and randomly assigned to daily intraperitoneal (i.p.) injections of PBS, III-11C (control peptide; 25 mg/kg), or pUR4 (25 mg/kg).
14 days after UIR (7 days after the onset of daily peptide injections), mice were given 100U heparin and anesthetized with isoflurane; blood was collected and animals were perfused with cold PBS through the aortic arch. Kidneys were excised (and the capsule membrane carefully removed), weighed, and then bisected lengthwise; one half was placed in cold 4% paraformaledhyde overnight followed by paraffin embedding, the other half cut into ˜1 mm3 pieces and flash-frozen for RNA and protein isolation.
Fixed kidneys were paraffin embedded, sectioned at 8 μm and mounted onto glass slides. Prior to staining, the sections were deparaffinized in xylene and rehydrated to water through increasing dilutions of ethanol (100%, 95%, 70%, and then 50%). For picrosirius red staining, slides were incubated for 1 hour in 0.1% Sirius Red (in 1.3% aqueous picric acid), washed twice in acidified water (0.5% acetic acid), […] and mounted with Permount. Images were taken at 10× and 40× (Olympus BX-51 with a DS-Ril camera), and the percentage of red staining was quantified using Image J software (NIH) by two observers blinded to experimental conditions.
For immunofluorescent staining, deparaffinized and rehydrated sections were microwaved for 20 minutes in a sodium citrate antigen retrieval solution (Vector H-3300), and then permeabilized in 0.06% triton-X in TBS. Sections were blocked in 10% goat or donkey serum (depending on the secondary antibody) in TBS for 2 hours at room temperature, and then incubated with primary antibody in 1% serum/TBS overnight at 4° C. Antibodies used were as follows: lipocalin-2/NGAL (1:100; JM-3819, MBL Intl Corp), Tim1/Kim1 (1:100; AF1817, R&D Systems), CD45 (1:100; AF114, R&D Systems), fibronectin (1:100; ab2413, Abcam), collagen I (1:100; ab21286, Abcam), vimentin (1:100; ab45939, Abcam), alpha-smooth muscle actin (1:500; A5228, Sigma). Slides were then washed three times in TBST for 5 min each, and incubated with secondary antibodies for 45 minutes at room temperature. In these experiments the following secondary antibodies were used, all from Jackson ImmunoResearch: donkey anti-rabbit 488 (711-545-152), donkey anti-goat 488 (705-545-147), donkey anti-mouse 647 (715-605-150) and donkey anti-rabbit 647 (711-605-152). […]

vascular remodeling = settings: localized pUR4 treatment; cited from earlier work
[2] = biological target: fibronectin polymerization (Homo sapiens, UniProt P02751); settings: in vitro; cited from earlier work
[3] = system: myocardial ischemia/reperfusion (I/R) injury; settings: cited from earlier work
[4] = system: unilateral ureteral obstruction (UUO); settings: obstructive model of kidney injury; cited from earlier work
[5] = 2 weeks after UIR, 25 mg/kg/d, 25 mg/kg/day
[6] = 14 days after UIR, 25 mg/kg/d, 25 mg/kg/day
[7] = injured kidney, 2 weeks after UIR, 25 mg/kg/d, 25 mg/kg/day
[8] = injured vs contralateral kidney, 14 days after UIR, 25 mg/kg i.p. daily from day 7, 25 mg/kg
[9] = kidney, 2 weeks after UIR, 25 mg/kg/d
[10] = one week systemic daily administration, up to four weeks after I/R

Sequence of fibronectin polymerization (P02751 32-2477): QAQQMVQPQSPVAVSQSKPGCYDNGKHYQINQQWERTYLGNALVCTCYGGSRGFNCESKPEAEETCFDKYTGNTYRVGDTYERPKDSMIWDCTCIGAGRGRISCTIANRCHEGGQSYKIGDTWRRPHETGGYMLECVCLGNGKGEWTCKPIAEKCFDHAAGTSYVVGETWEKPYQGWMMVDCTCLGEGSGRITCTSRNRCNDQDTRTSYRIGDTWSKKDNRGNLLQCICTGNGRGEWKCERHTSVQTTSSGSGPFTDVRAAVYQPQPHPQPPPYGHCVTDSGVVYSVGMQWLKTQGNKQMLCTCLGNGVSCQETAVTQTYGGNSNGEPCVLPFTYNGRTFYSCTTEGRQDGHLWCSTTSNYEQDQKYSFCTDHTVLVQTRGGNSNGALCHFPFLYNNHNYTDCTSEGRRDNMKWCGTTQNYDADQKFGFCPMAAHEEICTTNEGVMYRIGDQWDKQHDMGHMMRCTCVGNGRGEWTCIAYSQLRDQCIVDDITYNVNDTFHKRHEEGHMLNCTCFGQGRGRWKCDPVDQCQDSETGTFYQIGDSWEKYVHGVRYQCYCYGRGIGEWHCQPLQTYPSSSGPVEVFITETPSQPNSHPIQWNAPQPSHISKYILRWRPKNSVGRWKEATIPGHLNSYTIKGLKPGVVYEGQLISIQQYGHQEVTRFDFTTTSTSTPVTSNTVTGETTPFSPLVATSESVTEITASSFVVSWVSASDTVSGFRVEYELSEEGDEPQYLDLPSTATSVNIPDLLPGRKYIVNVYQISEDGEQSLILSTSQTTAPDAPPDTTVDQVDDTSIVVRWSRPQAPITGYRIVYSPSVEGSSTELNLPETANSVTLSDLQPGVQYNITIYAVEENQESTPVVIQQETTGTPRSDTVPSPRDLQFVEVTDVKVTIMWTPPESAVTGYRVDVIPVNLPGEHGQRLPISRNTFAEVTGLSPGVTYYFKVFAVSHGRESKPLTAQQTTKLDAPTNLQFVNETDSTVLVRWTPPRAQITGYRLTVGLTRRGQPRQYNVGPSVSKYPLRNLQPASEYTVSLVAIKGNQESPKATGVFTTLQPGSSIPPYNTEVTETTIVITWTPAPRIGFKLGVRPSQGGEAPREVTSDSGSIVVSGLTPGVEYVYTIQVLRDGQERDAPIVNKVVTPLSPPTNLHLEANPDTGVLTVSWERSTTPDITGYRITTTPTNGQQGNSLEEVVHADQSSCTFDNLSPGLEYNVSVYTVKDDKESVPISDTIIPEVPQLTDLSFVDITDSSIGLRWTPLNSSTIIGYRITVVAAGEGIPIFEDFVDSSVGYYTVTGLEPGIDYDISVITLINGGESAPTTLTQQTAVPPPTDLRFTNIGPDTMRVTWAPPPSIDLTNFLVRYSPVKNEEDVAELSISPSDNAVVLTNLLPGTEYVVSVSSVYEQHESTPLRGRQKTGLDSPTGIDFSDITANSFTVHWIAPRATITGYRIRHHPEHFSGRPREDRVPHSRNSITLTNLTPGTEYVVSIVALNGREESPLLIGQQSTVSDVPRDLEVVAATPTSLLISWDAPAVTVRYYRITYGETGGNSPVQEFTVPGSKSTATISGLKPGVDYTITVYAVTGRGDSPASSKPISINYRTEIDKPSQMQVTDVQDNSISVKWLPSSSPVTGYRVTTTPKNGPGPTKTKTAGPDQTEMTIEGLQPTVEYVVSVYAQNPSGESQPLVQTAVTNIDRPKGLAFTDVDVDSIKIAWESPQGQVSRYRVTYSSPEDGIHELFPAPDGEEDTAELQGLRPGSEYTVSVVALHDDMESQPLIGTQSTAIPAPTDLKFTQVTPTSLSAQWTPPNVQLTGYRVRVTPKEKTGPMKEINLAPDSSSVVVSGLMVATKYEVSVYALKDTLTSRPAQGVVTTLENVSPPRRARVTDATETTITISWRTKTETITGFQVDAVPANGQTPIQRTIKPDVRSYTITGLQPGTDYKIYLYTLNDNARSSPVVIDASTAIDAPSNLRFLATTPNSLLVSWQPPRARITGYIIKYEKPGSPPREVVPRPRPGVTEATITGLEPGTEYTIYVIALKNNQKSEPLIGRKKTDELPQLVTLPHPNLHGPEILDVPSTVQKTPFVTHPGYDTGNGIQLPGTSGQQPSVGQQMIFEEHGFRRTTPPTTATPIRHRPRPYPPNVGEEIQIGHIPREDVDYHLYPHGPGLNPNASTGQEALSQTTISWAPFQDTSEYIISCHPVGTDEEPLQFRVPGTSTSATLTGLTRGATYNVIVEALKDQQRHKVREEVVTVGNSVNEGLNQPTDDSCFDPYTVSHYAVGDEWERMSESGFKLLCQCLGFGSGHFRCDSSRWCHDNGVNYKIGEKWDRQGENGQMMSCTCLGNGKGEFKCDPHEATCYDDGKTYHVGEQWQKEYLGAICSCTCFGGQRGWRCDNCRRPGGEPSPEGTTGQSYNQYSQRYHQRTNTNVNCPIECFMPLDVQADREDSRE

In the case of “CKDQSPLAGESGETEYITEVYGNQQNPVDIDKKLPNETGFSGNMVETEDT (also: His tag) [pUR4]”, the “excess ECM deposition” value (liver fibrosis) is given as “attenuates”, the “kidney weight / kidney weight-to-body weight ratio” value [1, 5] is given as “partially restored; also recorded: significantly recovered” and the “mature fibrillar collagen, second harmonic generation (SHG)” value [1, 5] is given as “alleviation of fibrotic collagen deposition; also recorded: decreased kidney fibrosis”. For the same sequence, the “collagen deposition and maturation, picrosirius red staining (brightfield and polarized light)” value ([1]; 2 weeks after UIR, pUR4 vs III-11C, 25 mg/kg/d) was “decreased; also recorded: attenuated”, the “periglomerular fibrosis (fibronectin, α-SMA and vimentin surrounding glomeruli)” value ([1]; 14 days after UIR, 25 mg/kg/d) was “reduced periglomerular fibrosis” and the “alpha-smooth muscle actin (α-SMA) expression / positive cells, immunostaining” value [1, 6] was “abrogated; also recorded: diminished”. For the same sequence, the “collagen I deposition, immunofluorescence” value [1, 6] was “reduces this expansion; also recorded: concomitant decrease”, the “fibronectin deposition in kidney interstitium, immunofluorescence” value [1, 6] was “reduces this expansion; also recorded: decreased the amount of fibronectin” and the “vimentin expression / expansion of vimentin-positive cells outside the glomerulus, immunostaining” value [1, 6] was “abrogated; also recorded: diminished”. For the same sequence, the “CD45+ immune cell accumulation, immunostaining” value [1, 7] was “abrogated”, the “tubule damage and cellular infiltration, H&E staining” value [1, 7] was “abrogates; also recorded: decrease in cellular infiltrate and reduced tubule damage” and the “Havcr1 transcript expression, qPCR of kidney lysates” value [1, 8] was “nearly abolished; also recorded: significantly reduced”. For the same sequence, the “lipocalin-2 (Lcn-2) transcript expression, qPCR of kidney lysates” value [1, 8] was “nearly abolished; also recorded: significantly reduced”, the “NGAL (lipocalin-2) protein expression, immunofluorescent staining” value [1, 9] was “decreased” and the “Tim-1/Kim-1 (Havcr1) protein expression, immunofluorescent staining” value [1, 9] was “decreased”. For the same sequence, the “effect of injection in animals that underwent sham surgery” value ([1]; sham surgery, PBS vs III-11C vs pUR4) was “no differences were observed”, the “excess ECM deposition” value (vascular remodeling) was “attenuates” and the fibronectin polymerization [2] was “inhibit”. For the same sequence, the “fibronectin production or secretion” value [2] was “not its production or secretion”, the “deposition of ECM proteins” value ([3]; after myocardial I/R) was “attenuated” and the neutrophil infiltration ([3]; after myocardial I/R) was “reduced”. For the same sequence, the “proliferation of activated cardiac myofibroblasts” value ([3]; after myocardial I/R) was “reduced”, the cardiac function [3, 10] was “improves” and the “pathologic fibrosis and cardiac remodeling” value [3, 10] was “decreases”. The fibrosis [4] was “attenuate fibrosis”.
